In US20240285630A1, “Methods and compositions for improving exercise performance” (MEZZION PHARMA CO., LTD., priority 2021, published 2024):
Where “and” joins values, the source holds several entries; their conditions need not be identical. Identical values can stand only once.

Test system: adolescents with Fontan physiology
Experiment: FUEL Trial cardiopulmonary exercise test (CPET), cycle ergometer ramp protocol
Assay type: in vivo, human
Settings: for Change in VE/VCO2 at VAT: 26 week - baseline; for Peak VO2 (% change), difference in change (treatment - placebo): natural log transformed data
Text: The primary outcome was the change in oxygen consumption at peak exercise (max or peak VO2) from baseline to the 26-week visit. Secondary exercise outcomes included change in additional measures at maximal exertion, as well as change in measures of submaximal exercise at the ventilatory anaerobic threshold (VAT). The primary outcome for clinical secondary aims included change in myocardial performance index (MPI), an echocardiographically-derived measure of systolic and diastolic ventricular function, change in log-transformed reactive hyperemia index (InRHI), a PAT-derived measure of peripheral vascular function, and change in log-transformed serum BNP level. Safety was monitored through adverse event reports, which were collected according to a pre-specified protocol of study coordinator outreach, and through ad hoc patient and family communication with members of the study team at each site.
Baseline clinical testing completed before drug initiation included a blood draw to measure brain-type natriuretic peptide (BNP) level, a cardiopulmonary exercise test (CPET) using a standardized cycle ergometer ramp protocol, a standardized echocardiogram, and an assessment of peripheral vascular function using peripheral arterial tonometry (PAT) measured by finger cuff (EndoPAT; Itamar Medical, Israel). Participants who achieved maximal effort, defined as respiratory exchange ratio (RER)≥1.10 at peak exercise during CPET, were eligible for randomization and study drug initiation. […] End-of-study clinical testing included repeat measurement of serum BNP, CPET, echocardiogram, and PAT.
The primary analysis used the intention-to-treat population to evaluate the difference in the change in the primary outcome between treatment arms. This difference was assessed with an analysis of covariance (ANCOVA) with fixed factors for ventricular morphology (single left versus single right or mixed) and treatment group, with a continuous covariate of baseline max VO2. […] Secondary analyses included participants who successfully completed the protocol with measurable values at each of the secondary endpoints. Secondary outcomes of continuous data points were analyzed in the manner described for the primary outcome. In order to assess the generalizability of findings at the ventilatory anaerobic threshold, demographic and clinical characteristics were compared between participants without paired VO2 at VAT data and those comprising the remainder of the cohort.
The FUEL Trial was a Phase III clinical trial conducted at 30 centers. […] The primary outcome was the between group difference in change in oxygen consumption at peak exercise. Secondary outcomes included between group differences in changes in sub-maximal exercise at the ventilatory anaerobic threshold (VAT), the myocardial performance index (MPI), the natural log of the reactive hyperemia index (InRHI), and serum brain-type natriuretic peptide (BNP).
Baseline clinical testing completed before drug initiation included a blood draw to measure brain-type natriuretic peptide (BNP) level, a cardiopulmonary exercise test (CPET) using a standardized cycle ergometer ramp protocol (previously described in children and adolescents with Fontan physiology, Sleeper L A, Anderson P, Hsu D T, Mahony L, McCrindle B W, Roth S J, Saul J P, Williams R V, Geva T, Colan S D, Clark B J and Pediatric Heart Network I. Design of a large cross-sectional study to facilitate future clinical trials in children with the Fontan palliation. Am Heart J. 152(3):427-433 (September 2006), a standardized echocardiogram, and an assessment of peripheral vascular function using peripheral arterial tonometry (PAT) measured by finger cuff (EndoPAT; Itamar Medical, Israel). Participants who achieved maximal effort, defined as respiratory exchange ratio (RER)>1.10 at peak exercise during CPET, were eligible for randomization and study drug initiation. […]

[1] = baseline peak VO2 <80% predicted, N=251
[2] = baseline peak VO2 <80% predicted, N=301
[3] = baseline peak VO2 ≥80% predicted, N=66
[4] = excluding those with baseline peak VO2 ≥80% predicted, n=122
[5] = excluding those with baseline peak VO2 ≥80% predicted, n=150
[6] = post-hoc subgroup excluding baseline peak VO2 ≥80% of predicted
[7] = subgroup with baseline peak VO2 ≥80% of predicted, each treatment group

With `CCCOc1ccc(S(=O)(=O)NCCC2CCCN2C)cc1-c1nc2c(CCC)nn(C)c2c(=O)[nH]1` (centres unmarked) [Udenafil, udenafil] the “Increase in peak VO2 (VO2 max), percent” value (87.5 mg twice daily, baseline to 26-week, ITT) was 2.8%, the “Increase in peak VO2 (VO2 max), unindexed” value (87.5 mg twice daily, baseline to 26-week, ITT n=200, p=0.071 vs placebo) was 44 mL/min and 44 ± 245 mL/min and the “Anaerobic threshold oxygen consumption indexed to weight, 26-week” value (26-week value, mean ± SD, n=185) was 18.20 ± 4.51 (185) mL/kg/min. The “Peak exercise oxygen consumption indexed to weight, 26-week” value (26-week value, mean ± SD, n=200) was 27.61 ± 6.87 (200) mL/kg/min, the “Number needed to treat (NNT) for an increase in peak VO2” value (ITT analysis) was 10 and the “Patients with an increase in peak VO2, number” value (ITT analysis without imputation of missing data) was 86. The “Patients with an increase in peak VO2, percent” value (ITT analysis without imputation of missing data, p=0.075 vs placebo) was 46%, the “Peak VO2 indexed to weight, change 26 week - baseline” value (all participants (ITT) n=200, p=0.092 vs placebo) was −0.23 ± 4.06 (200) mL/kg/min and −0.23 mL/kg/min and the “VO2 at VAT indexed to weight, change 26 week - baseline” value (all participants n=170, p=0.012 vs placebo) was −0.07 ± 3.0 (170) mL/kg/min and −0.07 mL/kg/min. The “% Predicted Peak VO2, 26 week - baseline” value (all participants n=189) was −0.90, the “Peak VO2 (% change, ml/kg/min), 26 week - baseline” value (all participants n=200) was −1.0% and the “Change in VE/VCO2 at VAT” value (all participants) was −0.76. The “Change in VE/VCO2 at VAT” value (all participants, listed as udenafil) was −0.8, the “Change in work rate at VAT” value (all participants, baseline to 26-week) was 3.46 Watts and the “Work at VAT, difference in change (treatment - placebo)” value (baseline peak VO2 <80% predicted, N=243) was 3.54 watts. The “VE/VCO2 at VAT, difference in change (treatment - placebo)” value [1] was −0.66, the “VO2 at VAT, difference in change (treatment - placebo)” value [1] was 0.77 mL/min/kg and the “Peak VO2, difference in change (treatment group - placebo group)” value (“Peak VO2, difference in change” below) [2] was 1.12 mL/min/kg. For the same compound, the “Peak VO2 (% change), difference in change (treatment - placebo)” value [2] was 5.0%, the “Peak VO2, difference in change” value (baseline peak VO2 ≥80% predicted (Super Fontan), N=77) was -0.89 mL/min/kg and the “Peak VO2, difference in change” value (baseline peak VO2 ≥80% predicted (Super Fontan), N=77, listed as udenafil) was “no significant udenafil treatment effect”. The “VE/VCO2 at VAT, difference in change (treatment - placebo)” value [3] was −1.18, the “VO2 at VAT, difference in change (treatment - placebo)” value [3] was 0.38 mL/min/kg and the “Work at VAT, difference in change (treatment - placebo)” value [3] was 3.15 watts. For the same compound, the “Peak VO2 (% change), difference in change (treatment - placebo)” value (baseline peak VO2 ≥80% predicted, N=77) was −2.39%, the “Decrease in VE/VCO2 at VAT, percent” value (baseline to 26-week) was 2.1% and the “Improvement in work rate at VAT, percent” value (baseline to 26-week) was 5.5% and 5.2%. The “Decrease in VE/VCO2 at VAT (improved ventilatory efficiency)” value (baseline to 26-week, given as size of decrease) was 0.8, the “Peak exercise heart rate, change” value (baseline to 26-week, mean ± SD) was −1.4 ± 11 bpm and the “Peak exercise minute ventilation, change” value (baseline to 26-week, mean ± SD) was 1.2 ± 14 L/min. The “Peak exercise oxygen saturation, change” value (baseline to 26-week, mean ± SD) was 0.4 ± 3.4%, the “Peak exercise respiratory rate, change” value (baseline to 26-week, mean ± SD) was −1.1 ± 10 breaths/min and the “Peak exercise minute ventilation, change” value (baseline to 26-week, mean ± SD, listed as udenafil) was “no difference in the change in minute ventilation between groups”. The “Work at VAT, 26 week - baseline” value (excluding those with baseline peak VO2 ≥80% predicted, n=119) was 3.80 watts, the “VE/VCO2 at VAT, 26 week - baseline” value [4] was −0.61 and the “VO2 at VAT, 26 week - baseline” value [4] was 0.11 mL/min/kg. For the same compound, the “% Predicted Peak VO2, 26 week - baseline” value [5] was 0.43, the “Peak VO2 (% change, ml/kg/min), 26 week - baseline” value [5] was 0.4% and the “Peak VO2, 26 week - baseline” value [5] was 0.23 mL/min/kg. For the same compound, the “Number needed to treat (NNT) for an increase in peak VO2” value [6] was 8.2, the “Patients with an increase in peak VO2, number” value [6] was 75 and the “Patients with an increase in peak VO2, percent” value (post-hoc subgroup excluding baseline peak VO2 ≥80% of predicted, p=0.037 vs placebo) was 50%. For the same compound, the “Patients with negative change in peak VO2, percent” value [7] was 71 to 72% and the “Patients with positive change in peak VO2, percent” value [7] was 28 to 29%.
